According to ChEMBL document CHEMBL1135331, “Synthesis and characterization of a new RXR agonist based on the 6-tert-butyl-1,1-dimethylindanyl structure” (Bioorg Med Chem Lett, 2002):

Target: T1, Retinoic acid receptor RXR-alpha (Homo sapiens, UniProt P19793)
T1 sequence (P19793 whole entry): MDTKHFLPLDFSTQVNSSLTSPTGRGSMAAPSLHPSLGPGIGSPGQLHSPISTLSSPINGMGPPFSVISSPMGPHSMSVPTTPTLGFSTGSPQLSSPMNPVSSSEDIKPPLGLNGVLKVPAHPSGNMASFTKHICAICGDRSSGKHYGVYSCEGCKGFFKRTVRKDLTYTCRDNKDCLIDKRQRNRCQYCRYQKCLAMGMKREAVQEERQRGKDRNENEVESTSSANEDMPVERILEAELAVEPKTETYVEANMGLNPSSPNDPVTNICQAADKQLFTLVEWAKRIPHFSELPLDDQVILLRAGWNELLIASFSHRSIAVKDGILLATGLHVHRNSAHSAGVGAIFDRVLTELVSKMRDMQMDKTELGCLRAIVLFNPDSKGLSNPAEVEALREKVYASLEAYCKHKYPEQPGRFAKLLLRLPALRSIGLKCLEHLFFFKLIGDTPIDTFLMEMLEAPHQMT
Experiment: Dissociation constant for binding to Retinoic acid receptor RXR-alpha

Kd: 220 nM
Compound: C=C(/C=C/C=C/C(=O)O)c1cc(C(C)(C)C)cc2c1CCC2(C)C
